Measurements reported in patent US9198848B2, “Process for obtaining extracts containing methylxanthine derivatives from cakes of plants of the genus Theobroma, as well as composition and use of said extract” (Natura Cosmeticos S.A., priority 2008, dated 2015).

What was measured:
human fibroblasts = test: Production of β-endorphin in a culture of human fibroblasts (ELISA); format: cell-based; conditions: 0.038-0.600 μg/mL, 48 hr incubation, FIG. 2
Protocol: To carry out the experiments a cell line (pure/isolated culture) of human fibroblasts, adult age (mature), 6a passage was used.
The cells were cultured on appropriate culture plates (24 well) in specific medium culture, containing supplements required for cell maintenance and proliferation. For that purpose, 1×10^5 cells/well were seeded, confluence being reached after a 48 hour incubation, in a wet stove, 5% CO2, 37° C.
Subsequent to confluence (approximately 80% of the total area), the samples to be assessed were added, at the appropriate concentrations and previously established, according to table 1, always keeping a group as CONTROL (with no treatment), for comparative purposes in assessing effectiveness. The samples were previously diluted in proper culture medium.
(§1) After 48 hour incubation (wet stove, 5% CO2, 37° C.) with the samples, the supernatant of cell cultures were collected for assessing the beta-endorphin release. The possible citotoxicity of the compound was also assessed and taken into account. Assessment was qualitative only, by analysis of morphology and cell characteristics.
Quantification of the production of beta-endorphin by the cells in culture was carried out by the immunoenzymatic method ELISA (Enzyme-Linked Immunosorbent Assay), using a kit appropriate for determining beta-endorphin in biological samples. The samples were assessed in quadruplicate.

adipocytes = conditions: ex vivo adipocytes; caffeine versus theobromine; lypolisis rate by intracelullar glycerol; cited from earlier work
[1] = test system: UVA light-induced wrinkles; conditions: topical; 10 mM; UVA 13.0 J/cm^2; 15-week study; cited from earlier work
human keratinocytes = test: Production of β-endorphin in a culture of human keratinocytes (ELISA); format: cell-based; conditions: 0.038-0.600 μg/mL, 48 hr incubation, FIG. 3
Protocol: To carry out the experiments a cell line (pure/isolated culture) of human keranoticytes, adult age (mature), 7th passage was used.
The cells were cultured on appropriate culture plates (24 well) in specific medium culture, containing supplements required for cell maintenance and proliferation. For that purpose, 1×10^5 cells/well were seeded, confluence being reached after 72 hour incubation, in a wet stove, 5% CO2, 37° C.
Subsequent to confluence (approximately 80% of the total area), the samples to be assessed were added, at the appropriate concentrations and previously established, according to table 2, always keeping a group as CONTROL (with no treatment), for comparative purposes in assessing effectiveness. The samples were previously diluted in proper culture medium.
as §1
Quantification of the production of beta-endorphin by the cells in culture was carried out by the immunoenzymatic method ELISA (Enzyme-Linked immunosorbent Assay), using a kit appropriate for determining de beta-endorphin in biological samples. The samples were assessed in quadruplicate.

bovine fosfodiesterase = conditions: in vitro bovine fosfodiesterase; theobromine versus caffeine; cited from earlier work

| Compound | production of β-endorphin compared with TC150905MX at the same concentration (human fibroblasts) | power on noradrenaline-induced lypolisis (adipocytes) | prevention of UVA light-induced wrinkles [1] | production of β-endorphin compared with TC150905MX at the same concentration (human keratinocytes) | power in the ability of increasing AMPc (fosfodiesterase inhibition) (bovine fosfodiesterase) |
| --- | --- | --- | --- | --- | --- |
| Cn1c(=O)c2c(ncn2C)n(C)c1=O [caffeine] | higher production of β-endorphin | equivalent power | effective | higher production of β-endorphin | identical |
| Cn1cnc2c1c(=O)[nH]c(=O)n2C [theobromine] | – | – | – | – | identical |
